Measured values: patent US9796711B2, “Substituted pyrazolo[3,4-b]pyridin-6-carboxylic acids and method of use” (AbbVie S.àr.l., priority 2015, dated 2017)
pEC50: −log10 of the molar value.

Key:
ΔF508-CFTR [1] = molecular target: T1, ΔF508-CFTR (Homo sapiens, UniProt P13569, DEL508-508); assay: CFTR cell surface levels using HRP-tagged ΔF508-CFTR expressing CFBE cells, in the presence of a co-corrector; format: cell-based; conditions: HRP-tagged ΔF508-CFTR expressing CFBE cells, in the presence of 3 μM co-corrector; for pEC50: read-out: EC50
T1 construct: host or cells: CFBE41o-, doxycycline-inducible
Outline: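 Cells were seeded with 0.5 μg/mL doxycycline and held 68 h at 37 °C. Test compounds plus 3 μM co-corrector (final 0.1% DMSO) were then added for 20 h at 33 °C. Washed cells received HRP substrate, and luminescence was normalized between DMSO and 3 μM co-corrector controls.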

ΔF508-CFTR [2] = molecular target: T1, ΔF508-CFTR; assay: CFTR cell surface levels using HRP-tagged ΔF508-CFTR expressing CFBE cells, intrinsic corrector capacity; format: cell-based; conditions: for pEC50: read-out: EC50
Outline: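 Here the cells express ΔF508-CFTR with horseradish peroxidase inserted in extracellular loop 4, so only rescued channel at the surface gives luminescent signal. Compounds act on their own, 20 h at the reduced temperature of 33 °C; values are percent activity relative to DMSO and a 3 μM corrector.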

[3] = HRP-tagged ΔF508-CFTR expressing CFBE cells, intrinsic corrector capacity (no co-corrector), 33° C., 20 hours
[4] = HRP-tagged ΔF508-CFTR CFBE41o- cells, compounds alone (intrinsic corrector capacity), 20 hours at 33° C., positive control 3 μM corrector
[5] = HRP-tagged ΔF508-CFTR CFBE41o- cells, compounds alone (intrinsic corrector capacity), 20 hours at 33° C.

T1 sequence (P13569 with tags, fused parts or gaps DEL508-508): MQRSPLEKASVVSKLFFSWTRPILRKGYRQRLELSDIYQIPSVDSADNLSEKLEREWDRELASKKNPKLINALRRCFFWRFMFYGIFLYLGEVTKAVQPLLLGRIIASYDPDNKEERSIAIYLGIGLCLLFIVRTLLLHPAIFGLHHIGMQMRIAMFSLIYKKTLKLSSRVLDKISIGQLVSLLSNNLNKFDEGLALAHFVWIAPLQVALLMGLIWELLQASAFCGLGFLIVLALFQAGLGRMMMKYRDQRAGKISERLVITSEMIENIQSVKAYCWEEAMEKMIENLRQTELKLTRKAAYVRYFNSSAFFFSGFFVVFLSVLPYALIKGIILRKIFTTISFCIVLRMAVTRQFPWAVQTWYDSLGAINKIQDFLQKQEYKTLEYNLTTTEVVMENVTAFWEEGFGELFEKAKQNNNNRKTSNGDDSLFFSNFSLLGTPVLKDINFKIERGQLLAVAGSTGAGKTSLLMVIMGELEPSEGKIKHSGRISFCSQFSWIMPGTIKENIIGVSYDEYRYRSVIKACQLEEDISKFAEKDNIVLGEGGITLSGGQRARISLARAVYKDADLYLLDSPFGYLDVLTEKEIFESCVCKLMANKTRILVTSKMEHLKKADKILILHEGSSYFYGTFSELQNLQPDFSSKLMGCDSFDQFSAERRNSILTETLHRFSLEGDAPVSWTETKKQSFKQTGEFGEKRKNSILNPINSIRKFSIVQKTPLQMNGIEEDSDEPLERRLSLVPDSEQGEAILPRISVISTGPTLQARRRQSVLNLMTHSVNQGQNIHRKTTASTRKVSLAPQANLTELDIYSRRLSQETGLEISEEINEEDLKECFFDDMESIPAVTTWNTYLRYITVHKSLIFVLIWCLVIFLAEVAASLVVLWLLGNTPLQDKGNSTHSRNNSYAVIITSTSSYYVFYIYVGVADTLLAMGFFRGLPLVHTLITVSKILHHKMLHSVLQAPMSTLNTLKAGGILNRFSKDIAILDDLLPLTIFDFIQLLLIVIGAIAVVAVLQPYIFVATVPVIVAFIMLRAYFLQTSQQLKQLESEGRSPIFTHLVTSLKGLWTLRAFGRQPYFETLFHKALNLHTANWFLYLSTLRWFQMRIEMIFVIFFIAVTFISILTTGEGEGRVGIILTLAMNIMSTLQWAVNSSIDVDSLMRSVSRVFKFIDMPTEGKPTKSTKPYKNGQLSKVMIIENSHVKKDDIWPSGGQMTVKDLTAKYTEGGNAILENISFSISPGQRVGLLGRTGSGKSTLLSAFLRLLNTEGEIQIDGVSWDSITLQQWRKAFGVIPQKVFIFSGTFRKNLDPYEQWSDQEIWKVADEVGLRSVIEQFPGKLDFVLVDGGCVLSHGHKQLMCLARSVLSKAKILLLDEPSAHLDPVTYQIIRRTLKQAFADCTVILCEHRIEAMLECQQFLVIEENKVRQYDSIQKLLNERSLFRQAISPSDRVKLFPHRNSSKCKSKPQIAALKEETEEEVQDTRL

With `O=C(O)c1cc(N2CCN3C[C@@H](F)C[C@H]3C2)c2c(C3CCC3)nn(-c3ccccc3)c2n1` [compound 515, 3-cyclobutyl-4-[(7S,8aS)-7-fluorohexahydropyrrolo[1,2-a]pyrazin-2(11/)-yl]-1-phenyl-1H-pyrazolo[3,4-b]pyridine-6-carboxylic acid] the “% Activation” value (ΔF508-CFTR [1]) was 173.5%, the pEC50 (ΔF508-CFTR [1]) was 5.48 and the “% Activation” value (ΔF508-CFTR [2]; [3]) was 15.59%. It also gave a pEC50 (ΔF508-CFTR [2]; [3]) of under 5.00.
`Cc1nn(-c2ccccc2)c2nc(C(=O)O)cc(N3CCN4C(=O)OCC4C3)c12` (centres unmarked) [compound 301, 3-methyl-4-(3-oxotetrahydro-3H-[1,3]oxazolo[3,4-a]pyrazin-7(1H)-yl)-1-phenyl-1H-pyrazolo[3,4-b]pyridine-6-carboxylic acid] was tested, and the “% Activation” value (ΔF508-CFTR [1]) was 117.35%, the pEC50 (ΔF508-CFTR [1]) was 5.12 and the “% Activation” value (ΔF508-CFTR [2]; [4]) was 12.64%. It also gave a pEC50 (ΔF508-CFTR [2]; [5]) of 5.12.
In the case of `CC(C)c1nn(C2CCCC2)c2nc(C(=O)O)cc(-c3ccc(N(C)C)nc3)c12` [compound 83, 1-cyclopentyl-4-[6-(dimethylamino)pyridin-3-yl]-3-(propan-2-yl)-1H-pyrazolo[3,4-b]pyridine-6-carboxylic acid], the “% Activation” value (ΔF508-CFTR [1]) was 332.65%, the pEC50 (ΔF508-CFTR [1]) was 5.98 and the “% Activation” value (ΔF508-CFTR [2]; [4]) was 142.25%. The pEC50 (ΔF508-CFTR [2]; [5]) was 5.83.
In the case of `CS(=O)(=O)N1CCN(c2cc(C(=O)O)nc3c2c(C2CCC2)nn3-c2ccccc2)CC1` [compound 523, 3-cyclobutyl-4-[4-(methanesulfonyl)piperazin-1-yl]-1-phenyl-1H-pyrazolo[3,4-b]pyridine-6-carboxylic acid], the “% Activation” value (ΔF508-CFTR [1]) was 320.1%, the pEC50 (ΔF508-CFTR [1]) was 6.20 and the “% Activation” value (ΔF508-CFTR [2]; [3]) was 136.2%. The pEC50 (ΔF508-CFTR [2]; [3]) was 5.55.
`COC1CCN(c2cc(C(=O)O)nc3c2c(C(C)C)nn3C2CCCCC2)CC1` [compound 264, 1-cyclohexyl-4-(4-methoxypiperidin-1-yl)-3-(propan-2-yl)-1H-pyrazolo[3,4-b]pyridine-6-carboxylic acid] was tested, and the “% Activation” value (ΔF508-CFTR [1]) was 428.47%, the pEC50 (ΔF508-CFTR [1]) was 6.33 and the “% Activation” value (ΔF508-CFTR [2]; [4]) was 213.88%. It also gave a pEC50 (ΔF508-CFTR [2]; [5]) of 6.13.
`O=C(O)c1cc(OC[C@@H](F)C2CCOCC2)c2c(C3CCC3)nn(-c3ccccc3)c2n1` [compound 415, 3-cyclobutyl-4-[(2S)-2-fluoro-2-(oxan-4-yl)ethoxy]-1-phenyl-1H-pyrazolo[3,4-b]pyridine-6-carboxylic acid] was tested, and the “% Activation” value (ΔF508-CFTR [1]) was 334.35%, the pEC50 (ΔF508-CFTR [1]) was 6.60 and the “% Activation” value (ΔF508-CFTR [2]; [3]) was 168.85%. It also gave a pEC50 (ΔF508-CFTR [2]; [3]) of 6.31.
In the case of `O=C(O)c1cc(N2CCCC3(CC3)C2)c2c(C3CCC3)nn(-c3ccccc3)c2n1` [compound 419, 4-(5-azaspiro[2.5]octan-5-yl)-3-cyclobutyl-1-phenyl-1H-pyrazolo[3,4-b]pyridine-6-carboxylic acid], the “% Activation” value (ΔF508-CFTR [1]) was 293.9%, the pEC50 (ΔF508-CFTR [1]) was 6.29 and the “% Activation” value (ΔF508-CFTR [2]; [3]) was 136%. It also gave a pEC50 (ΔF508-CFTR [2]; [3]) of 6.01.
For `CC(C)c1nn(-c2ccc(F)cc2)c2nc(C(=O)O)cc(N3CCCC(C(F)F)C3)c12` (centres unmarked) [compound 399, 4-[3-(difluoromethyl)piperidin-1-yl]-1-(4-fluorophenyl)-3-(propan-2-yl)-1H-pyrazolo[3,4-b]pyridine-6-carboxylic acid], the “% Activation” value (ΔF508-CFTR [1]) was 336.55%, the pEC50 (ΔF508-CFTR [1]) was 6.32 and the “% Activation” value (ΔF508-CFTR [2]; [3]) was 137.6%. For the same molecule, the pEC50 (ΔF508-CFTR [2]; [3]) was 6.08.
For `Cc1nn(-c2ccc(F)cc2F)c2nc(C(=O)O)cc(-c3ccc(N4CCOCC4)nc3)c12` [compound 104, 1-(2,4-difluorophenyl)-3-methyl-4-[6-(morpholin-4-yl)pyridin-3-yl]-1H-pyrazolo[3,4-b]pyridine-6-carboxylic acid], the “% Activation” value (ΔF508-CFTR [1]) was 308.55%, the pEC50 (ΔF508-CFTR [1]) was 6.00 and the “% Activation” value (ΔF508-CFTR [2]; [4]) was 130.4%. It also gave a pEC50 (ΔF508-CFTR [2]; [5]) of 5.91.
With `CO[C@H]1CCN(c2cc(C(=O)O)nc3c2c(C2CCC2)nn3-c2ccccc2)C1` [compound 512, 3-cyclobutyl-4-[(3S)-3-methoxypyrrolidin-1-yl]-1-phenyl-1H-pyrazolo[3,4-b]pyridine-6-carboxylic acid] the “% Activation” value (ΔF508-CFTR [1]) was 286.4%, the pEC50 (ΔF508-CFTR [1]) was 5.85 and the “% Activation” value (ΔF508-CFTR [2]; [3]) was 103%. The pEC50 (ΔF508-CFTR [2]; [3]) was 5.93.
For `COCC1CCCN(c2cc(C(=O)O)nc3c2c(C2CCC2)nn3-c2ccccc2)C1` (centres unmarked) [compound 373, 3-cyclobutyl-4-[3-(methoxymethyl)piperidin-1-yl]-1-phenyl-1H-pyrazolo[3,4-b]pyridine-6-carboxylic acid], the “% Activation” value (ΔF508-CFTR [1]) was 306.9%, the pEC50 (ΔF508-CFTR [1]) was 6.52 and the “% Activation” value (ΔF508-CFTR [2]; [4]) was 126.3%. For the same molecule, the pEC50 (ΔF508-CFTR [2]; [5]) was 6.33.
For `O=C(O)c1cc(N2CCC3(CC2)CC(F)(F)CO3)c2c(C3CCC3)nn(-c3ccccc3)c2n1` [compound 453, 3-cyclobutyl-4-(3,3-difluoro-1-oxa-8-azaspiro[4.5]decan-8-yl)-1-phenyl-1H-pyrazolo[3,4-b]pyridine-6-carboxylic acid], the “% Activation” value (ΔF508-CFTR [1]) was 275.35%, the pEC50 (ΔF508-CFTR [1]) was 6.18 and the “% Activation” value (ΔF508-CFTR [2]; [3]) was 110.68%. For the same molecule, the pEC50 (ΔF508-CFTR [2]; [3]) was 6.14.
`CC(C)c1nn(-c2ccc(F)cc2)c2nc(C(=O)O)cc(N3CCC(C4CCN(C)CC4)CC3)c12` [compound 661, 1-(4-fluorophenyl)-4-(1′-methyl [4,4′-bipiperidin]-1-yl)-3-(propan-2-yl)-1H-pyrazolo[3,4-b]pyridine-6-carboxylic acid] was tested, and the “% Activation” value (ΔF508-CFTR [1]) was 522.3%, the pEC50 (ΔF508-CFTR [1]) was 6.64 and the “% Activation” value (ΔF508-CFTR [2]; [3]) was 315%. The pEC50 (ΔF508-CFTR [2]; [3]) was 6.25.
For `O=C(O)c1cc(N2CCC(CN3CC4(CCCOC4)C3)CC2)c2c(C3CCC3)nn(-c3ccccc3)c2n1` [compound 836, 3-cyclobutyl-4-{4-[(6-oxa-2-azaspiro[3.5]nonan-2-yl)methyl]piperidin-1-yl}-1-phenyl-1H-pyrazolo[3,4-b]pyridine-6-carboxylic acid], the “% Activation” value (ΔF508-CFTR [1]) was 325.3%, the pEC50 (ΔF508-CFTR [1]) was 6.39 and the “% Activation” value (ΔF508-CFTR [2]; [3]) was 137.3%. It also gave a pEC50 (ΔF508-CFTR [2]; [3]) of 6.31.
`Cc1nn(-c2ccccc2)c2nc(C(=O)O)cc(OCC3(F)CCCN(C4COC4)C3)c12` (centres unmarked) [compound 381, 4-{[3-fluoro-1-(oxetan-3-yl)piperidin-3-yl]methoxy}-3-methyl-1-phenyl-1H-pyrazolo[3,4-b]pyridine-6-carboxylic acid] was tested, and the “% Activation” value (ΔF508-CFTR [1]) was 182.9%, the pEC50 (ΔF508-CFTR [1]) was 5.78 and the “% Activation” value (ΔF508-CFTR [2]; [4]) was 17.695%. For the same molecule, the pEC50 (ΔF508-CFTR [2]; [5]) was 5.30.
For `N#CC1CCN(c2ccc(-c3cc(C(=O)O)nc4c3c(C3CCC3)nn4-c3ccnc(N4CCOCC4)c3)cn2)CC1` [compound 416, 4-[6-(4-cyanopiperidin-1-yl)pyridin-3-yl]-3-cyclobutyl-1-[2-(morpholin-4-yl)pyridin-4-yl]-1H-pyrazolo[3,4-b]pyridine-6-carboxylic acid], the “% Activation” value (ΔF508-CFTR [1]) was 369.5%, the pEC50 (ΔF508-CFTR [1]) was 6.11 and the “% Activation” value (ΔF508-CFTR [2]; [3]) was 179.1%. It also gave a pEC50 (ΔF508-CFTR [2]; [3]) of 5.90.
With `Cc1nn(-c2ccccc2)c2nc(C(=O)O)cc(N3CCC4(CCNC4=O)C3)c12` (centres unmarked) [compound 313, 3-methyl-4-(6-oxo-2,7-diazaspiro[4.4]nonan-2-yl)-1-phenyl-1H-pyrazolo[3,4-b]pyridine-6-carboxylic acid] the “% Activation” value (ΔF508-CFTR [1]) was 132.2%, the pEC50 (ΔF508-CFTR [1]) was 5.12 and the “% Activation” value (ΔF508-CFTR [2]; [4]) was 11.239%. It also gave a pEC50 (ΔF508-CFTR [2]; [5]) of 5.12.
With `CO[C@H]1CC[C@@H](Oc2cc(C(=O)O)nc3c2c(C2CCC2)nn3-c2ccccc2)CC1` [compound 428, 3-cyclobutyl-4-[(cis-4-methoxycyclohexyl)oxy]-1-phenyl-1H-pyrazolo[3,4-b]pyridine-6-carboxylic acid] the “% Activation” value (ΔF508-CFTR [1]) was 296%, the pEC50 (ΔF508-CFTR [1]) was 6.42 and the “% Activation” value (ΔF508-CFTR [2]; [3]) was 128.05%. It also gave a pEC50 (ΔF508-CFTR [2]; [3]) of 6.01.
For `Cc1cccc(-n2nc(C(C)C)c3c(N4CCC(C#N)C4)cc(C(=O)O)nc32)c1` (centres unmarked) [compound 218, 4-(3-cyanopyrrolidin-1-yl)-1-(3-methylphenyl)-3-(propan-2-yl)-1H-pyrazolo[3,4-b]pyridine-6-carboxylic acid], the “% Activation” value (ΔF508-CFTR [1]) was 380.9%, the pEC50 (ΔF508-CFTR [1]) was 6.03 and the “% Activation” value (ΔF508-CFTR [2]; [4]) was 169.4%. The pEC50 (ΔF508-CFTR [2]; [5]) was 5.64.
For `O=C1CN(c2cc(C(=O)O)nc3c2c(C2CCC2)nn3-c2ccccc2)CCN1` [compound 504, 3-cyclobutyl-4-(3-oxopiperazin-1-yl)-1-phenyl-1H-pyrazolo[3,4-b]pyridine-6-carboxylic acid], the “% Activation” value (ΔF508-CFTR [1]) was 138.9%, the pEC50 (ΔF508-CFTR [1]) was under 5.00 and the “% Activation” value (ΔF508-CFTR [2]; [3]) was 19.62%. For the same molecule, the pEC50 (ΔF508-CFTR [2]; [3]) was under 5.00.
For `O=C(O)c1cc(N2CCC3(CCNC3=O)C2)c2c(C3CCC3)nn(-c3ccccc3)c2n1` (centres unmarked) [compound 537, 3-cyclobutyl-4-(6-oxo-2,7-diazaspiro[4.4]nonan-2-yl)-1-phenyl-1H-pyrazolo[3,4-b]pyridine-6-carboxylic acid], the “% Activation” value (ΔF508-CFTR [1]) was 191.2%, the pEC50 (ΔF508-CFTR [1]) was 5.48 and the “% Activation” value (ΔF508-CFTR [2]; [3]) was 45.36%. The pEC50 (ΔF508-CFTR [2]; [3]) was 5.48.
`N#CCCN1CCN(c2cc(C(=O)O)nc3c2c(C2CCC2)nn3-c2ccccc2)CC1` [compound 561, 4-[4-(2-cyanoethyl)piperazin-1-yl]-3-cyclobutyl-1-phenyl-1H-pyrazolo[3,4-b]pyridine-6-carboxylic acid] was tested, and the “% Activation” value (ΔF508-CFTR [1]) was 348%, the pEC50 (ΔF508-CFTR [1]) was 6.37 and the “% Activation” value (ΔF508-CFTR [2]; [3]) was 174.8%. It also gave a pEC50 (ΔF508-CFTR [2]; [3]) of 5.80.
With `COC[C@@H]1CCN(CC2CCN(c3cc(C(=O)O)nc4c3c(C3CCC3)nn4-c3ccccc3)CC2)C1` [compound 802, 3-cyclobutyl-4-(4-{[(3R)-3-(methoxymethyl)pyrrolidin-1-yl]methyl}piperidin-1-yl)-1-phenyl-1H-pyrazolo[3,4-b]pyridine-6-carboxylic acid] the “% Activation” value (ΔF508-CFTR [1]) was 439.7%, the pEC50 (ΔF508-CFTR [1]) was 6.11 and the “% Activation” value (ΔF508-CFTR [2]; [3]) was 218%. The pEC50 (ΔF508-CFTR [2]; [3]) was 6.34.
